Key:
MIA PaCa-2 cells = experiment: Crystal violet cell proliferation assay; type: cell-based; conditions: Homo sapiens
Text: Survivin is an anti-cell death gene that confers resistance of cancer cells to therapeutic agents. […] However, SV40-NLS-QD-siRNA nanocassettes could not be used for in vivo delivery due to the lack of specificity. Inhibition of survivin expression led to the activation of the apoptotic cell death since a high level of active caspase 3 (17 KDa fragments) was detected in those cell groups by Western blot analysis (FIG. 6B). Targeted internalization of hATF QD-survivin siRNA expressing nanocassettes were further confirmed in the MIA PaCa-2 cell line (FIG. 6C).
The effect of survivin gene silencing using hATF-QD-Survivin siRNA expressing nanocassettes was examined on cell sensitivity to chemotherapy drugs. […] Pancreatic cancer cells have a low sensitivity to free gemcitabine treatment and 60% of viable cells were detected by cell proliferation assay 72 h following 100 μM of gemcitabine treatment (FIG. 7A).
Crystal violet assay was used to determine the percentage of viable cells. […] Percentage of viable cells in the experimental groups was determined by measurements O.D. at 590 nm using Spectra Max Plus (Molecular Devices, Sunnyvale, Calif.). […] Cell lysates were analyzed for their levels of caspase 3-like activity, which is generated by caspases 3, 7, and 10, using an Ac-DEVD-AFC substrate (Calbiochem, San Diego, Calif.). […]

[1] = mouse, in vivo
Experimental: The tumor bearing mice then received 200 pmol of QDs carrying luciferase siRNA-expressing DNA cassettes (about 2 nmol of DNA cassettes) by tail vein injection. Before and at different time points following the nanoparticle administration, 2 mg/Kg of luciferin substrate was injected intraperitoneally into the mice for 5 min before each bioluminescence imaging procedure using identical imaging conditions and an Olympus OV-100 small animal imaging system (Olympus America Inc.).

[2] = tested on: MCF-10DCIS human breast cancer cells; experiment: Target specificity / intracellular delivery of nanoparticles, fluorescence microscopy; type: cell-based; conditions: 15 pmol of QDs, 24 h
Experimental: (§1) To further quantify gene silencing efficiency in tumor cells in vitro and the detection of dynamic changes in the inhibition of gene expression in animal tumor models in vivo using bioluminescence imaging, U6-luciferase (Luc) siRNA expressing nanocassettes from p-Silencer-firefly luciferase shRNA plasmid were amplified. […] The inhibitory effect was enhanced as the copy number of Luc siRNA nanocassettes on each QD increased from 2 to 10 or 20 (FIG. 4B).
Cells were plated in 24-well culture plates for 24 h and then incubated with various nanoparticles at an equal molar concentration (15 pmol of QDs) for 24 h. Control unconjugated DNA cassettes or plasmids were transfected into cells. As a delivery efficiency control, siRNA expressing nanocassettes were also conjugated to QDs with the NLS peptides from SV40 virus, CGGGPKKKRKVE (SEQ ID NO: 10). The peptide sequence was provided by Dr. Steven Dowdy at University of California, San Diego. The SV-40-NLS peptides were synthesized by Genscript USA Inc. (Piscataway, N.J.). Culture plates were then examined using an inverted Olympus fluorescence microscope.

[3] = tested on: luciferase positive MCF-10DCIS tumors; experiment: Bioluminescence imaging of gene silencing in orthotopic breast cancer xenografts; type: in vivo, nude mice
Experimental: One of the major obstacles in applying siRNA technology to cancer therapy is the low delivery and gene silencing efficiencies in the tumor following systemic administration. To determine the gene silencing efficiency of uPAR-targeted siRNA expressing nanocassettes, hATF-QD-Luc siRNA nanocassettes were injected via the tail vein into nude mice bearing orthotopic luciferase positive MCF-10DCIS tumors. Non-invasive bioluminescence imaging was used at different time points to determine changes in the luciferase activity in the tumors. Twenty-four hours after the injection, the level of luciferase activity decreased by 42% in the mice that received hATF-QD-Luc siRNA nanocassettes.
To determine whether the changes in luciferase activity in the tumor were the result of specific silencing of the luciferase gene, mice bearing MCF-10DCIS tumors in the low abdominal mammary gland received a tail vein injection of either hATF-QD-Luc siRNA or hATF-QD-control siRNA nanocassettes. […] Therefore, the effect of down regulation of luciferase gene expression is likely due to the targeted delivery of luciferase siRNA-expressing nanocassettes into the tumor.

[4] = tested on: firefly luciferase gene stably transfected human breast cancer MCF-10DCIS cell; experiment: Luciferase activity assay in cell lysates; type: cell-based; conditions: MCF-10DCIS cell lysates, 24 h after nanoparticle incubation
Text: as §1
Following different treatments, cells were collected from culture plates. Cell lysates were examined for luciferase activity using the Single Luciferase Assay System (Promega Corp., Madison, Wis.). The level of the luciferase activity was measured by a luminometer (Lumistar galaxy, BMG, Winooski, VM) for single samples or using the Xenogen IVIS system (Caliper Life Sciences, Mountain View, Calif.) for 96-well plates.

Molecule: Nc1ccn([C@@H]2O[C@H](CO)[C@@H](O)C2(F)F)c(=O)n1 [gemcitabine]
- viability at 1 µM (MIA PaCa-2 cells; 1 μM gemcitabine, free drug treated group, read-out: percentage of viable cells): 94%
- viability at 100 µM (MIA PaCa-2 cells; 100 μM gemcitabine, 72 h, read-out: viable cells): 60%

Molecule: hATF-QD-Luc siRNA nanocassettes: U6-luciferase siRNA expressing DNA nanocassettes conjugated to QDs with human ATF targeting ligands
- levels of QD accumulation in the liver and spleen [1]: markedly decreased
- entry into cells (intracellular delivery efficiency) [2]: could efficiently enter
- decrease in level of luciferase activity in tumor ([3]; 24 h after tail vein injection, 200 pmol QDs): 42%
- inhibitory effect on luciferase activity in tumor ([3]; 72 h after injection): further enhanced
- decrease in luciferase activity in the tumor ([3]; 72 h after injection, specificity experiment (FIG. 5C)): > 90%
- luciferase activity in tumor versus pre-injection ([3]; 140 h after injection): returned to the pre-injection level
- inhibitory effect on luciferase activity in the tumor ([3]; 144 h after injection (FIG. 5C)): still strong
- duration of inhibitory effect on luciferase activity ([3]; after tail vein injection): over 120 h
- luciferase activity [4]: decrease in luciferase activity
